Non-standard residues stand in square brackets, D forms with d. Residues, ends and D or L forms follow the SMILES beside them. αMeP = C[C@@]1(C(=O)O)CCCN1
Key:
[1] = test system: MeCP2 deficient mice; test: Seizure activity, electroencephalographic recordings; conditions: mouse, in vivo
Source text: Because seizures are a prominent, hazardous and a difficult to treat aspect of Rett Syndrome, we determine the effects of G-2MePE on seizure activity in MeCP2 deficient animals. G-2-MePE can be effective in treating seizure activity in animals with neurodegenerative disease (U.S. Pat. No. 7,714,020). Therefore, we carry out experiments to determine whether G-2-MePE can also treat seizure activity in MeCP2 deficient mice. Electroencephalograpic recordings of wild-type mice and MeCP2 deficient mice treated with either saline or G-2-MePE are obtained using methods described in U.S. Pat. No. 7,714,020.

[2] = Pharmacokinetics after intravenous bolus injection; format: in vivo, rat
Experimental: Adult male Wistar rats weighing between 180 and 240 g were used to determine the pharmacokinetics of GPE and […]. To facilitate intravenous bolus injections and blood sampling, all rats were surgically implanted with an indwelling jugular venous cannula under halothane anesthesia three days before the experiment. Groups of six rats were given a single intravenous bolus injection of either 30 mg/kg GPE or 10 mg/kg […] dissolved in 0.1M succinate buffer (pH 6.5). […] The samples were centrifuged at 3000 g for 15 min at 4° C. and the plasma removed and stored at -80° C. until extraction and assay by either radioimmunoassay (“RIA”) or reverse phase HPLC. The RIA and HPLC methods used were conventional. […] The k and half-life (t1/2) were calculated from the slope of the linear regression line in the elimination phase of the semi-logarithmic plot of plasma concentration versus time as: Log. C=-kt/2.3+log C0. Results were expressed as mean±standard error.

[3] = test system: central nervous system; conditions: after oral administration; cited from earlier work
[4] = test system: heterozygous Shank3-deficient mice; test: Shank3-deficient mouse model, behavioral analyses; format: in vivo; conditions: 15 or 60 mg/kg oral b.i.d. for 14 days
Source text: Heterozygous mice generated by crossing wild-type mice with heterozygotes are used in this example to best model the haploinsufficiency of Shank3, responsible for 22q13 deletion syndrome.
1 to 3 month old wild type and heterozygous Shank3-deficient mice are divided into 4 treatment groups: placebo treated wild-type, placebo treated Shank3-deficient group and two Shank3-deficient G-2-MePE treated groups. The animals are given placebo (water) or G-2-MePE formulated in water administered orally, b.i.d for 14 days. G-2-MePE is administered at two doses: 15 or 60 mg/kg.
Behavioral assessments are made at several, time points, and include analysis of social interactions and ultrasonic social communication, in line with the methodology described by Bozdagi et al. Briefly, male-female social interactions in each treatment group are evaluated. […] Videos from the male subjects are subsequently scored by an investigator uninformed of the subject's genotype and treatment group on measures of nose-to-nose sniffing, nose-to-anogenital sniffing and sniffing of other body regions, using Noldus Observer software (Noldus Information Technology, Leesburg, Va., USA). Ultrasonic vocalizations are identified manually by two highly trained investigators blinded to genotype/treatment group information, and summary statistics are calculated using the Avisoft package. […]

[5] = test system: Tbx1 heterozygous, Cntnap2 knockout, Slc9a6 knockout and fmr1 knockout mice; test: Genetic mouse models of ASD and Fragile X Syndrome; format: in vivo; conditions: 20 mg/kg/day i.p.
Experimental: Effects of G-2-MePE are further tested in the following genetic models of ASD: the Tbx1 heterozygous mouse, the Cntnap2 knockout mouse and the Sic9a6 knockout mouse. G-2-MePE is also tested in the fmr1 knockout mouse model of Fragile X Syndrome.
Animals in each of the above models are generated in accordance with the methodology described in the cited literature. Wild type equivalents are also obtained for each genetic model. Animals in each model are divided into three groups (n=10 to n=20): placebo treated wild type mice, mutant G-2-MePE-treated group and mutant placebo-treated control group.
The treatments are administered intraperitoneally: placebo (saline) or 20 mg/kg/day of G-2-MePE.

SMILES: C[C@@]1(C(=O)N[C@@H](CCC(=O)O)C(=O)O)CCCN1C(=O)CN [Example G-2-MePE, Glycyl-L-2-methylprolyl-L-glutamic acid] (H-Gly-[αMeP]-Glu-OH)
- motor seizures [1]: effective in decreasing
- non-convulsive seizures [1]: effective in decreasing
- first order rate constant ([2]; 10 mg/kg single i.v. bolus, rat): 0.033 ± 0.001 min⁻¹
- maximal plasma concentration relative to GPE ([2]; G-2-MePE 10 mg/kg vs GPE 30 mg/kg i.v.): about 4.8 times
- t1/2 relative to GPE ([2]; i.v., rat): over 4 times
- activity in the central nervous system [3]: active
- cumulative duration of total social sniffing ([4]; vs placebo treated Shank3-deficient group): significant increase
- number of ultrasonic vocalizations ([4]; vs placebo treated mutant group): increased number
- measures associated with the ASD phenotype [5]: significantly improves

— patent US9212204B2, “Treatment of rett syndrome using glycyl-L-2-methylprolyl-L-glutamic acid” (priority 2011, dated 2015)
